Measured values reported in ChEMBL document CHEMBL1275325, “QSAR guided synthesis of simplified antiplasmodial analogs of naphthylisoquinoline alkaloids” (Eur J Med Chem, 2010).
pIC50: −log10 of the molar value.

What was measured:
[1] = Selectivity index, ratio of IC50 for rat L6 cells to IC50 for Plasmodium falciparum K1; assay type: toxicity, cell-based; conditions: read-out: Ratio IC50
[2] = tested on: Plasmodium falciparum; assay: Antiplasmodial activity against Plasmodium falciparum K1; assay type: functional, organism-based
[3] = tested on: Trypanosoma brucei rhodesiense; assay: Antitrypanosomal activity against Trypanosoma brucei rhodesiense STIB900; assay type: functional, organism-based; conditions: for pIC50: Trypanosoma brucei, STIB900, read-out: IC50
[4] = tested on: L6; assay: Cytotoxicity against rat L6 cells; assay type: cell-based
[5] = tested on: Trypanosoma cruzi; assay: Antitrypanosomal activity against clone C4 Trypanosoma cruzi Tulahuen expressing LacZ; assay type: functional, organism-based; conditions: for pIC50: Trypanosoma cruzi, Tulahuen, read-out: IC50
[6] = tested on: Leishmania major; assay: Antileishmanial activity against promastigotes of Leishmania major; assay type: functional, organism-based; conditions: for pIC50: Leishmania major, read-out: IC50
[7] = tested on: Leishmania donovani; assay: Antileishmanial activity against axenic amastigotes of Leishmania donovani; assay type: functional, organism-based; conditions: for pIC50: Leishmania donovani, read-out: IC50
[8] = tested on: Trypanosoma brucei brucei; assay: Antitrypanosomal activity against Trypanosoma brucei brucei; assay type: functional, organism-based; conditions: for pIC50: Trypanosoma brucei, read-out: IC50

| Structure (SMILES) | selectivity ratio [1] | pIC50 [2] | pIC50 [3] | pIC50 [4] | pIC50 [5] | pIC50 [6] | pIC50 [7] | pIC50 [8] | IC50 [3] | IC50 [5] | IC50 [7] | IC50 [6] | IC50 [8] |
| --- | --- | --- | --- | --- | --- | --- | --- | --- | --- | --- | --- | --- | --- |
| CC1=N[C@H](C)Cc2c(-c3ccc(C(F)(F)F)cc3)ccc(O)c21 | 210 | 6.34 | 4.83 | 4.01 | 4.72 | < 4.00 | 4.46 | 4.80 |  |  |  |  |  |
| CC1(C)Cc2c(Br)ccc(O)c2C=N1 | > 141 | 6.15 |  | < 4.00 |  | < 4.00 |  | < 4.00 | Not Active | Not Active | Not Active |  |  |
| Oc1ccc(Br)c2c1C=NCC2 |  | 5.91 |  | < 4.00 |  |  |  |  | Not Active | Not Active | Not Active | Not Active | Not Active |
| COc1ccc(Br)c2c1C(C)=N[C@H](C)C2 |  | < 4.72 | < 4.00 | < 4.00 | < 4.00 |  | < 4.00 |  |  |  |  | Not Active | Not Active |
| COc1ccc(-c2ccccc2)c2c1C(C)=N[C@H](C)C2 |  | 5.73 | 5.19 | 4.23 | 4.33 | < 4.00 | 4.13 | 4.83 |  |  |  |  |  |
| CC1=N[C@H](C)Cc2c(-c3ccccc3)ccc(O)c21 |  | 6.09 | 5.32 | 4.28 | 4.24 | < 4.00 | < 4.00 | 4.87 |  |  |  |  |  |
| CC1=N[C@H](C)Cc2c(-c3ccc(C)cc3)ccc(O)c21 | > 229 | 6.36 | 5.15 | < 4.00 | 4.41 | < 4.07 | 4.28 | 4.49 |  |  |  |  |  |
| CC1=N[C@H](C)Cc2c(-c3ccc(O)cc3)ccc(O)c21 |  | 5.00 | 4.27 | < 4.00 | < 4.00 |  | < 4.00 |  |  |  |  | Not Active | Not Active |
| CC1=N[C@H](C)Cc2c(-c3ccc(Cl)cc3)ccc(O)c21 | > 188 | 6.27 |  | < 4.00 |  | < 4.00 |  | < 4.40 | Not Active | Not Active | Not Active |  |  |
| CC1=N[C@H](C)Cc2c(-c3cccc(Cl)c3)ccc(O)c21 |  | 6.07 | 5.12 | 4.29 | 4.86 | 4.28 | 4.61 | 4.57 |  |  |  |  |  |
| COc1ccc(-c2cccc(Cl)c2)c2c1C(C)=N[C@H](C)C2 |  | 5.10 | 5.93 | 4.42 | 4.85 |  | 4.89 |  |  |  |  | Not Active | Not Active |
| COc1ccc(-c2cccc3ccccc23)c2c1C(C)=N[C@H](C)C2 |  | 5.16 | 5.40 | 4.46 | 4.80 |  | 4.84 |  |  |  |  | Not Active | Not Active |
| CC1=N[C@H](C)Cc2c(-c3cccc4ccccc34)ccc(O)c21 |  | 6.12 | 4.96 | 4.24 | 4.80 | 4.87 | 4.57 | 5.56 |  |  |  |  |  |
| COc1ccc(-c2ccc3ccccc3c2)c2c1C(C)=N[C@H](C)C2 |  | 5.93 | 5.35 | 4.14 | 4.68 | 4.55 | 4.67 | 5.00 |  |  |  |  |  |
| CC1=N[C@H](C)Cc2c(-c3ccc4ccccc4c3)ccc(O)c21 | 152 | 6.32 | 6.00 | 4.14 | 4.78 | 4.46 | 4.42 | 4.60 |  |  |  |  |  |
| COc1ccc(-c2ccc(OC)c3ccccc23)c2c1C=NC(C)(C)C2 |  | 5.62 |  | 4.36 |  | 4.43 | 5.71 | 4.52 | Not Active | Not Active |  |  |  |

| Structure (SMILES) | selectivity ratio [1] | pIC50 [2] | pIC50 [3] | pIC50 [4] | pIC50 [5] | pIC50 [6] | pIC50 [7] | pIC50 [8] | IC50 [3] | IC50 [5] | IC50 [7] | IC50 [6] | IC50 [8] |
| --- | --- | --- | --- | --- | --- | --- | --- | --- | --- | --- | --- | --- | --- |
| COc1ccc(-c2ccc(OC)c3ccccc23)c2c1C=NCC2 |  | 5.77 |  | 4.46 | 4.96 | 4.33 |  | 4.58 | Not Active |  | Not Active |  |  |
| Oc1ccc(-c2ccc(O)c3ccccc23)c2c1C=NCC2 |  | 5.46 |  | 4.03 |  |  |  |  | Not Active | Not Active | Not Active | Not Active | Not Active |
| COc1cccc2c(-c3ccc(O)c4c3CC(C)(C)N=C4)ccc(OC(C)C)c12 | > 725 | 6.86 |  | < 4.00 |  |  |  |  | Not Active | Not Active | Not Active | Not Active | Not Active |
| COc1cccc2c(-c3ccc(O)c4c3CCN=C4)ccc(OC(C)C)c12 | 227 | 6.92 |  | 4.57 |  |  |  |  | Not Active | Not Active | Not Active | Not Active | Not Active |
| COc1cccc2c(-c3ccc(O)c4c3CC(C)(C)N=C4)ccc(O)c12 |  | 5.77 |  | < 4.00 |  | < 4.00 |  | 4.47 | Not Active | Not Active | Not Active |  |  |
| COc1cccc2c(-c3ccc(O)c4c3CCN=C4)ccc(O)c12 |  | 5.70 |  | 4.01 |  |  |  |  | Not Active | Not Active | Not Active | Not Active | Not Active |
| COc1cccc2c(-c3ccc(O)c4c3CC(C)(C)NC4)ccc(O)c12 | 168 | 6.65 | 5.53 | 4.43 |  |  |  |  |  | Not Active | Not Active | Not Active | Not Active |
| COc1cccc2c(-c3ccc(O)c4c3CCNC4)ccc(O)c12 | 152 | 6.58 | 5.61 | 4.40 |  |  |  |  |  | Not Active | Not Active | Not Active | Not Active |
| COc1ccc(-c2ccc(C)cc2)c2c1C(C)=N[C@H](C)C2 |  | 5.60 | 5.23 | < 4.00 | 4.71 | < 4.08 | 4.45 | 4.69 |  |  |  |  |  |
| COc1ccc(-c2ccc(O)cc2)c2c1C(C)=N[C@H](C)C2 |  | 4.97 | 5.32 | < 4.00 | 4.59 |  | 4.67 |  |  |  |  | Not Active | Not Active |
| COc1ccc(-c2ccc(Cl)cc2)c2c1C(C)=N[C@H](C)C2 |  | 5.19 | 5.11 | 4.25 | 4.82 |  | 4.80 |  |  |  |  | Not Active | Not Active |
| COc1ccc(-c2ccc(C(F)(F)F)cc2)c2c1C(C)=N[C@H](C)C2 |  | 5.52 | 5.13 | < 4.00 | < 4.00 | < 4.00 | 4.74 | 4.98 |  |  |  |  |  |
| C[C@@H]1[C@H](O)[C@@H](C)/C=C/C=C/C=C/C=C/C=C/C=C/C=C/[C@H](O[C@@H]2O[C@H](C)[C@@H](O)[C@H](N)[C@@H]2O)C[C@@H]2O[C@](O)(C[C@@H](O)C[C@@H](O)[C@H](O)CC[C@@H](O)C[C@@H](O)CC(=O)O[C@H]1C)C[C@H](O)[C@H]2C(=O)O [AMPHOTERICIN B] |  |  |  |  |  | 5.60 |  |  |  |  |  |  |  |
| O=C(Cn1ccnc1[N+](=O)[O-])NCc1ccccc1 [BENZNIDAZOLE] |  |  |  |  | 5.70 |  |  |  |  |  |  |  |  |
| Nc1nc(N)nc(Nc2ccc([As]3SCC(CO)S3)cc2)n1 (centres undefined) [MELARSOPROL] |  |  | 8.15 |  |  |  |  |  |  |  |  |  |  |
| N=C(N)c1ccc(OCCCCCOc2ccc(C(=N)N)cc2)cc1 [PENTAMIDINE] |  |  |  |  |  |  |  | 8.52 |  |  |  |  |  |
